# PMC9365377 (Clinical Cancer Research, 2022)
# Entries after “also recorded” stand apart in the source; their conditions may differ. Like-named read-outs stand apart in the source and are kept apart here.
# Tests used:
# [1] = tested on: advanced, previously untreated, unresectable, stage IIIC or IV NRAS-mutant melanoma; conditions: cited from earlier work
# [2] = phase I study, 3 weeks on/1 week off; cited from earlier work
# [3] = tested on: patients with NRAS-mutant melanoma; test: Phase Ib dose escalation: DLTs in cycle 1, MTD/RP2D determination; assay type: in vivo, human; conditions: 28-day schedule
# Plasma pharmacokinetics = assay type: in vivo, human; conditions: for Tmax: steady state; for Cmax: human, Cmax at steady state, geometric mean (geometric %CV)
# [4] = phase I study; cited from earlier work
# [5] = binimetinib 45 mg orally twice daily or dacarbazine 1,000 mg/m^2 intravenously every 3 weeks, 402 patients
# [6] = patients who received prior immunotherapy
# [7] = binimetinib 45 mg twice daily + ribociclib 200 mg once daily, 28-day schedule, 11 subjects
SMILES,"median PFS [1, 5] [months]","median PFS [1, 6] [months]","recommended dose for expansion, single agent [2] [mg/day]",RP2D (in the combination) ([3]; 21 days on/7 days off) [mg once daily],Tmax (Plasma pharmacokinetics; [7]),Dose proportionality of steady-state exposures (Plasma pharmacokinetics; dose-escalation range of 200 to 600 mg once daily),"Cmax (Plasma pharmacokinetics; plasma, 600 mg ribociclib coadministered with binimetinib, 21-day cycle) [ng/mL]","Cmax (Plasma pharmacokinetics; plasma, binimetinib 45 mg twice daily + ribociclib 200 mg once daily, 28-day schedule, 11 subjects, plasma) [ng/mL]","recommended phase II dose (RP2D), single agent [4] [mg twice daily]","PFS HR, binimetinib vs dacarbazine ([1]; 95% CI, 0.47–0.80, one-sided P < 0.001)","OS HR, binimetinib vs dacarbazine ([1]; 95% CI, 0.75–1.33, one-sided P = 0.50)",RP2D (in the combination) ([3]; continuous dosing) [mg twice daily],"AUCtau at steady state, geometric mean (geometric %CV) (Plasma pharmacokinetics; binimetinib 45 mg twice daily + ribociclib 200 mg once daily, 28-day schedule, 11 subjects, plasma)"
CN(C)/N=N/c1[nH]cnc1C(N)=O [dacarbazine],1.5,1.6,,,,,,,,,,,
CN(C)C(=O)c1cc2cnc(Nc3ccc(N4CCNCC4)cn3)nc2n1C1CCCC1 [ribociclib],,,600,200,about 2.25 hour postdose,increased greater than dose proportionally; also recorded: greater than dose proportional,1910,220,,,,,
Cn1cnc2c(F)c(Nc3ccc(Br)cc3F)c(C(=O)NOCCO)cc21 [binimetinib],2.8,5.5,,,about 1.00 hour postdose,,,,45,0.62,1.00,45,"2,250 (37.7%) hour*ng/mL"
